Consider 4 compounds from PMC4949581 (ACS Chemical Biology, 2016).

Molecules are shown by their SMILES.

Common to all, as to assay type: biochemical
The target in assay [1] is T1, TxGH116 β-glucosidase (Thermoanaerobacterium xylanolyticum, UniProt F6BL85).
T1 sequence (F6BL85 19-806): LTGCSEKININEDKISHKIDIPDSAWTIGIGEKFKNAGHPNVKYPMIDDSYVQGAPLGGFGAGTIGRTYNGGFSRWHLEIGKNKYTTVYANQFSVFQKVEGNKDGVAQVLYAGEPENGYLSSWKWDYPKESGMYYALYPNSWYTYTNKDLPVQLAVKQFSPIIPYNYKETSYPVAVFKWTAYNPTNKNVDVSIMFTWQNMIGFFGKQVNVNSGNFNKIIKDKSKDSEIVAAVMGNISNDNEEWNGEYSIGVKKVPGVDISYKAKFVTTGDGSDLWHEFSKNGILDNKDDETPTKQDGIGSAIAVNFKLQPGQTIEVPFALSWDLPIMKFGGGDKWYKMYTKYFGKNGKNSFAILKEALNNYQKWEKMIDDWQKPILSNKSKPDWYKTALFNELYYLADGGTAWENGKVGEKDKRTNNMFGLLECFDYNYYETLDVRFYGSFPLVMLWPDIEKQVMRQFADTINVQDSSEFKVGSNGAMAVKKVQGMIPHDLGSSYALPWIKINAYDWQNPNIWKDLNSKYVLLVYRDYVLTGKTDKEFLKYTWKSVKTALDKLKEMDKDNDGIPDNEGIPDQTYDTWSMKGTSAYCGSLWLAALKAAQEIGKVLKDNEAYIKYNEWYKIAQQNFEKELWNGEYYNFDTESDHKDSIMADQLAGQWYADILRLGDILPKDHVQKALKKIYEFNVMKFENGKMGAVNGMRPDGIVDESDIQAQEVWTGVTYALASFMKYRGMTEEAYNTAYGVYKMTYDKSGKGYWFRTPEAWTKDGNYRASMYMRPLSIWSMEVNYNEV
In words: crystal structure.

The target in assay [2] is T1, TxGH116 β-glucosidase. As to the kind of experiment: crystal structure. This is another data set of the same source.
Assay [3] concerns the target T1, TxGH116 β-glucosidase. As to the kind of experiment: inhibition of 4NPGlc hydrolysis, Lineweaver–Burk.
Assay [4] has as its target T1, TxGH116 β-glucosidase. In words: inactivation of the purified enzyme.

Compound `OC[C@H]1NC[C@H](O)[C@@H](O)[C@@H]1O` [DNJ, deoxynojirimycin] showed a Ki on TxGH116 β-glucosidase [1] of 0.13 ± 0.01 µM.

As for `OC[C@H]1O[C@@H](O)[C@H](O)[C@@H](O)[C@@H]1O` [Glc, D-glucose], the inhibition constant Ki on TxGH116 β-glucosidase [2] amounted to 4000 ± 300 µM.

On TxGH116 β-glucosidase [3], `OC[C@H]1CNC[C@@H](O)[C@@H]1O` [IFG, isofagomine] returned an inhibition constant (Ki) of 0.0029 ± 0.0001 µM.

Take `OC[C@@H]1[C@@H](O)[C@H](O)[C@@H](O)[C@@H]2O[C@H]12` [cyclophellitol]: at TxGH116 β-glucosidase [4], the “inactivation of the purified enzyme” value is given as “cyclophellitol, a related epoxide that contains a hydroxymethyl group corresponding to the hydroxymethyl group of glucose, rapidly inactivated TxGH116”.
